What all share (assay type): physicochemical
Data set [1] in a line: Effect of antioxidants added to FDA-approved benzoyl peroxide drug products on benzene levels. The following applies: antioxidant added to drug product, 50° C. for 2 days. The procedure: (§1) The method USP <467> Residual Solvents Procedure A was modified from flame ionization detection (FID) to mass spectrometry (MS) detection for benzene in benzoyl peroxide products. The gas chromatography (GC) methods were also modified to allow shorter run time and the method was validated for addition of up to 500 mg benzoyl peroxide product or 200 ml glycerol. Identification of benzene was based on the retention time matching to certified reference standards and mass spectral m/z matching to benzene.

Data set [2] is described as follows: Effect of solvents on benzene levels in 10% w/v benzoyl peroxide formulations. As to conditions: 10% benzoyl peroxide, 37° C. for 10 days, compared to formulations containing glycerol or NMP. The method, then: as §1
10% w/v benzoyl peroxide formulations were prepared. Various solvents were added to the formulations (water, dimethylsulfoxide (DMSO), glycerol. N-methyl-2-pyrrolidone (NMP)) to test whether these solvents could prevent or reduce formation of benzene under certain conditions. The various formulations were incubated at either 37° C., for up to two weeks or at 50° C., for up to two weeks. Benzene levels in each formulation were tested at various time points according to the protocols described in Example 1.

Data set [3] in a line: Effect of antioxidants on benzene levels in 10% w/v benzoyl peroxide formulations. As to conditions: 10% w/v benzoyl peroxide plus antioxidant. The procedure:
For benzoyl peroxide stability studies in glycerol, benzoyl peroxide was prepared in a stock suspension of 20% w/v in glycerol and mixed 1:1 with 20% w/v suspensions or v/v solutions of antioxidants in glycerol. For pH experiments, the same stock suspension of benzoyl peroxide was mixed 1:1 with a 50% glycerol solution with 200 mM buffering agent (Citrate buffer pH 3.0, Tris Buffer pH 7.0, or Tris Buffer pH 9.0) for final 75% glycerol solution. The final volume of all reactions was 100 μL in GC headspace vials with 10% solution benzoyl peroxide (10 mg) and 10% antioxidant or 100 mM buffering agent. Vials were immediately crimp sealed for incubation. For analysis, 4.9 mL of DMSO was added to make up the final volume to approximate 5 mL, crimp sealed, and gently vortexed to mix.
Benzene standard was diluted in DMSO for an 11-point calibration ranging from 10 ng/vial to 100 μg/vial. The coefficient of determination R^2 were greater than 0.999. Five (5) mL of DMSO was used for negative control samples.
as §1, with “benzene. Lower limit of detection (LLOD) was 10 ng (equivalent to 0.02 ppm in hand benzoyl peroxide products) and LLOQ was 25 μg. The measurement uncertainty was determined to be 20%.” for “benzene.”
10% w/v benzoyl peroxide formulations were prepared. Various antioxidants were added to the formulations (10% w/v butylated hydroxytoluene (BHT), 10% w/v vitamin E acetate, or 5% w/v tert-butyl hydroquinone (TBHQ)+5% w/v BHT) to test whether these antioxidants could prevent or reduce formation of benzene under certain conditions. The various formulations were incubated at either 37° C., for up to two weeks or at 50° C., for up to two weeks. Benzene levels in each formulation were tested at various time points according to the protocols described in Example 1.

Data set [4] can be described thus: Benzene levels formed by crystalline benzoyl peroxide incubated at 50° C. The following applies: 50° C. for up to 12 days. The procedure: as §1

As to `CC(C)(C)c1cc(O)ccc1O` [TBHQ, tert-butyl hydroquinone], the “levels of benzene formed in two FDA-approved drug products with antioxidant” value in data set [1] is on record as “reduce the degradation of benzoyl peroxide to benzene”.

Regarding `O` [water], the “levels of benzene formed in the formulations” value (shortened to “levels … in the formulations”) in data set [2] was “most dramatic reduction in, or complete prevention of, benzene levels”.

As for `C[S+](C)[O-]` [DMSO, dimethylsulfoxide], the “levels … in the formulations” value in data set [2] is reported as “most dramatic reduction in, or complete prevention of, benzene levels”.

As to `Cc1cc(C(C)(C)C)c(O)c(C(C)(C)C)c1` [BHT, butylated hydroxytoluene], the “levels … in the formulations” value in data set [3] (37° C. for up to two weeks) and in data set [3] (50° C. for up to two weeks) was “most dramatic reduction” throughout. Besides, the “levels of benzene formed in two FDA-approved drug products with antioxidant” value in data set [1] was “reduce the degradation of benzoyl peroxide to benzene”.

For the molecule `CC(=O)Oc1c(C)c(C)c2c(c1C)CCC(C)(CCC[C@H](C)CCC[C@H](C)CCCC(C)C)O2` (stereo partly drawn) [vitamin E acetate], the “levels … in the formulations” value in data set [3] (37° C. for up to two weeks) and in data set [3] (50° C. for up to two weeks) was “reduced the levels of benzene” throughout.

For the molecule `O=C(OOC(=O)c1ccccc1)c1ccccc1` [crystalline benzoyl peroxide, benzoyl peroxide], in data set [4], the “levels of benzene formed” value is given as “may be protected from forming benzene levels”.
